Measurements from patent US8192962B2, “Processes for detecting toxic substances” (Daikin Industries, Ltd., priority 2001, dated 2012).

Tested on: Transport facilitation protein genes
Experiment: DNA chip mRNA expression in yeast, transport facilitation protein genes (Table 5)
Format: cell-based, Saccharomyces cerevisiae S288C
Procedure, shortened: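 Untreated cultures served as reference for log-phase S288C yeast given a growth-inhibiting, non-lethal toxicant dose for 2 h at 25° C. in YPD. Gene expression was measured on a whole-genome DNA chip from Cy3/Cy5-labeled cDNA.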

Measured: The level of expressed mRNA in the presence of chemical substance/The level of expressed mRNA in the absence of chemical substance

O=[N+]([O-])c1cc[n+]([O-])c2ccccc12 [(5), 4-nitroquinolin-N-oxide]
1.3: yeast gene YCR037C | yeast gene YDL245C | yeast gene YDR039C | yeast gene YDR298C | yeast gene YDR343C | yeast gene YDR345C | yeast gene YFL011W | yeast gene YFL054C | yeast gene YGR055W
1.4: yeast gene YBR052C | yeast gene YBR068C | yeast gene YBR127C | yeast gene YBR294W | yeast gene YBR298C | yeast gene YCR098C | yeast gene YEL065W | yeast gene YGL255W | yeast gene YGR224W
1.2: yeast gene YCL038C | yeast gene YEL063C | yeast gene YFL041W | yeast gene YGL167C | yeast gene YGR065C | yeast gene YGR096W
1.0: yeast gene YBL099W | yeast gene YDL128W | yeast gene YDR086C | yeast gene YDR270W | yeast gene YEL027W | yeast gene YFL050C | yeast gene YGL006W | yeast gene YGL104C
0.8: yeast gene YBR132C | yeast gene YBR293W | yeast gene YBR295W | yeast gene YGL008C | yeast gene YGR138C | yeast gene YGR191W | yeast gene YGR260W
0.9: yeast gene YCL025C | yeast gene YCR024C-A | yeast gene YDL210W | yeast gene YDR038C | yeast gene YDR387C | yeast gene YGR082W
1.6: yeast gene YDR342C
0.7: yeast gene YBL030C | yeast gene YDL198C | yeast gene YDR497C | yeast gene YGR197C
1.7: yeast gene YBR207W
0.6: yeast gene YER053C
